The values below come from ChEMBL document CHEMBL1128837, “The evaluation of 2- and 6-substituted carbocyclic nucleosides as building blocks for antisense oligonucleotides” (Bioorg Med Chem Lett, 1995).

A short description of assay [1]: Difference in melting temperature (Tm) between the modified DNA/RNA duplex and the unmodified wild type (WT) duplex per modification at 52.3 degree Celsius (5'-TTTTtCTCTCTCTCT-3'). Format: functional.
A short description of assay [2]: Effect of compound on the nuclease resistance of wild type 5'-d(TCC AGG TGT CCG TTT C)-3' in 10% heat-activated fetal calf serum (FCS) expressed as t1/2. The class given is functional.
Assay [3] in a line: Difference in melting temperature (Tm) between the modified DNA/RNA duplex and the unmodified wild type (WT) duplex per modification at 61.8 degree Celsius (5'-tCCAGGtGtCCGCAtC-3'). The class given is functional.
Assay [4] is described as follows: Difference in melting temperature (Tm) between the modified DNA/RNA duplex and the unmodified wild type (WT) duplex per modification at 63.9 degree Celsius (5'-CTCGTACCtTTCCGGTCC-3'). Format: functional.
Assay [5] is described as follows: Effect of compound on the nuclease resistance of 5'-d(TCC AGG TGT CCG TTT C)-3' in 10% heat-activated fetal calf serum (FCS) expressed as t1/2. The class given is functional.
A short description of assay [6]: Difference in melting temperature (Tm) between the modified DNA/RNA duplex and the unmodified wild type (WT) duplex per modification at 48 degree Celsius (5'-GCGttttttttttGCG-3'). The class given is functional.
Assay [7] in a line: Ratio of effect of compound on the nuclease resistance of full length oligonucleotide to that of wild type in 10% heat-activated fetal calf serum (FCS). Format: functional.
Assay [8] can be described thus: Difference in melting temperature (Tm) between the modified DNA/RNA duplex and the unmodified wild type (WT) duplex per modification at 61.7 degree Celsius (5'-CTCGTACttttCCGGTCC-3'). Format: functional.
A short description of assay [9]: Difference in melting temperature (Tm) between the modified DNA/RNA duplex and the unmodified wild type (WT) duplex per modification at 52.3 degree Celsius (5-tttttc*tc*tc*tc*tc*T-3). Format: functional.
Assay [10] can be described thus: Difference in melting temperature (Tm) between the modified DNA/RNA duplex and the unmodified wild type (WT) duplex per modification at 52.3 degree Celsius (5-tttttC*tc*tc*tc*tc*T-3). The class given is functional.
A short description of assay [11]: Difference in melting temperature (Tm) between the modified DNA/RNA duplex and the unmodified wild type (WT) duplex per modification at 52.3 degree Celsius (5'-tttttctctctctT-3'). The class given is functional.
A short description of assay [12]: Difference in melting temperature (Tm) between the modified DNA/RNA duplex and the unmodified wild type (WT) duplex per modification at 63.9 degree Celsius (5-ctcGtacctttccGGtcC-3. The class given is functional.
Assay [13] can be described thus: Stability against degradation by 3'-exonucleases for the sequence 5'-d(TCC AGG TGT CCG TTT C)-3' in 10% heat-activated fetal calf serum (FCS). The class given is functional.
A short description of assay [14]: Melting temperature (Tm) of the modified DNA/RNA duplex at 48 degree Celsius (5'-GCGttttttttttGCG-3').
A short description of assay [15]: Melting temperature (Tm) of the modified DNA/RNA duplex at 48 degree Celsius (5'-GCGtttttttttGCG-3'); No cooperative melting observed.

Where only a bound is given, the exact number is not on record here.

For the compound `Cc1cn([C@H]2C[C@H](O)[C@@H](CO)[C@@H]2OCCCCN)c(=O)[nH]c1=O`, the ΔTm in assay [1] is -1.1; in assay [3] it was -1.4; in [4], -1.8; in assay [6] it was -1.9. In addition, the T1/2 in assay [2] is 2 h; in assay [5] it was above 48 h. Besides, the Ratio in [7] is above 24.

In the case of `Cc1cn([C@H]2C[C@H](O)[C@@H](CO)[C@@H]2O)c(=O)[nH]c1=O`, the ΔTm is -0.8 in assay [1]; -0.4 in assay [3]; 0.2 in assay [8]; 0.8 in [6]; 0.4 in [9]. In addition, the T1/2 is 2 h in assay [2] and 14 h in assay [5]. Besides, the Ratio in assay [7] amounted to 7.

`COCCOCCO[C@H]1[C@H](CO)[C@@H](O)C[C@@H]1n1cc(C)c(=O)[nH]c1=O`: the ΔTm in [1] is -1.8; in [10], -1.9.

As to `CO[C@H]1[C@H](CO)[C@@H](O)C[C@@H]1n1cc(C)c(=O)[nH]c1=O`, the ΔTm is -2 in [1]; -1.3 in assay [3]; -0.7 in [8]; 0.2 in [4]; -0.9 in assay [6]. The T1/2 in assay [2] was 2 h; in [5], 20 h. Further, the Ratio in assay [7] worked out at 10.

`Cc1cn([C@H]2C[C@H](O)[C@@H](CO)O2)c(=O)[nH]c1=O`: the ΔTm is 0.4 in assay [11]; 0.3 in assay [12]; 0.2 in assay [4]; 0.25 in assay [6]; 2.5 in assay [13].

Turning to `COCCOCCOCCO[C@@H]1[C@H](O)[C@@H](CO)C[C@H]1n1cc(C)c(=O)[nH]c1=O`, the ΔTm in [1] is 0.2; in assay [3] it was -1.1; in [8], -2.6; in assay [4], -2.9. Besides, the Tm in assay [14] is below 20 °C.

As to `Cc1cn([C@H]2C[C@H](O)[C@@H](CO)[C@@H]2OCCCc2ccccc2)c(=O)[nH]c1=O`, the ΔTm in assay [1] is -4; in assay [3], -2.8; in assay [8] it was -1.7; in assay [4], -2.8. Moreover, the Tm in assay [15] and in [14] was below 20 °C throughout. Moreover, the T1/2 in assay [2] was 2 h; in assay [5], above 48 h. Besides, the Ratio in assay [7] was above 24.

In the case of `CO[C@@H]1[C@H](O)[C@@H](CO)C[C@H]1n1cc(C)c(=O)[nH]c1=O`, the ΔTm in assay [1] is 1.1; in assay [8], -0.7; in assay [4], -1.9; in assay [6] it was -1.

The term Tm denotes the temperature at which the thermal transition is half complete.
